Data taken from patent US12065424B1, “6′(4-methoxyphenyl)-2′-alkoxy-3,4′-bipyridine-3′-carbonitrile as antimicrobial compounds” (KING FAISAL UNIVERSITY, priority 2023, dated 2024).

Columns and labels:
Type in all cases: cell-based
Aspergillus flavus = assay: Agar plate disc-diffusion, antifungal inhibition zone; conditions: Sabouraud's dextrose agar, 37° C., 72 h, DMSO zone subtracted
Protocol: (§1) The agar plate disc-diffusion method was applied. Sterilized filter papers (6 mm in diameter) were wetted with 10 μL of a solution of 6′-(4-methoxyphenyl)-2′-ethoxy-3,4′-bipyridine-3′-carbonitrile (4) or 6′-(4-methoxyphenyl)-2′-methoxy-3,4′-bipyridine-3′-carbonitrile (5) to be tested, containing […] in DMSO, and the discs were allowed to air dry. The discs were then placed onto the surface of agar plates (nutrient agar for bacteria and Sabouraud's dextrose agar for fungi) seeded with the test organism. Each plate contained 15 mL of the agar medium, previously seeded with 0.2 mL of the broth culture of each organism pregrown for 18 hours. The plates were incubated at 37° C. for 48 h, and 72 h for fungi. The inhibition zones were measured in mm. Discs impregnated with DMSO were used as a control, and its inhibition zone was subtracted from the tested compound actual inhibition zone.
(§2) The results of the antimicrobial testing can be observed in Tables 1 and 2, below, using ciprofloxacin as a reference.

[1] = test system: Chrysosporium keratinophilum; assay: as above; conditions: Sabouraud's dextrose agar, 37° C., 72 h, DMSO zone subtracted
Protocol: as §1, §2

Bacillus Cereus = assay: Agar plate disc-diffusion, antibacterial inhibition zone; conditions: nutrient agar, 37° C., 48 h, DMSO zone subtracted
Protocol: as §1, §2

Staphylococcus aureus = assay: as above; conditions: nutrient agar, 37° C., 48 h, DMSO zone subtracted
Protocol: as §1, §2

Pseudomonas aeruginosa = assay: as above; conditions: nutrient agar, 37° C., 48 h, DMSO zone subtracted
Protocol: as §1, §2

Escherichia coli = assay: as above; conditions: nutrient agar, 37° C., 48 h, DMSO zone subtracted
Protocol: as §1, §2

different microbes = assay: Antimicrobial activity, overall statement on Tables 1 and 2; conditions: summary of Tables 1 and 2, bacteria and fungi
Protocol: as §1
Their antibacterial activity was screened against gram positive bacteria namely Bacillus cereus and Staphylococcus aureus and gram-negative bacterial strains namely Pseudomonas aeruginosa and Escherichia coli, while their antifungal activity was screened against Aspergillus flavus and Chrysosporium keratinophilum.

[2] = A = concentration of comp. = 10,000 μL
[3] = B = concentration of comp. = 30.000 μL
[4] = C = concentration of comp. = 50,000 μL

Row | Structure (SMILES) | inhibition zone (Aspergillus flavus; [2]) | inhibition zone (Aspergillus flavus; [3]) | inhibition zone (Aspergillus flavus; [4]) | inhibition zone [1, 2] | inhibition zone [1, 3] | inhibition zone [1, 4] | inhibition zone (Bacillus Cereus; [2]) | inhibition zone (Bacillus Cereus; [3]) | inhibition zone (Bacillus Cereus; [4]) | inhibition zone (Staphylococcus aureus; [2]) | inhibition zone (Staphylococcus aureus; [3]) | inhibition zone (Staphylococcus aureus; [4]) | inhibition zone (Pseudomonas aeruginosa; [2]) | inhibition zone (Pseudomonas aeruginosa; [3]) | inhibition zone (Pseudomonas aeruginosa; [4]) | inhibition zone (Escherichia coli; [2]) | inhibition zone (Escherichia coli; [3]) | inhibition zone (Escherichia coli; [4]) | antimicrobial activities (in words) (different microbes)
1 | O=C(O)c1cn(C2CC2)c2cc(N3CCNCC3)c(F)cc2c1=O [Cip., ciprofloxacin, reference compound] | 29 mm | 30 mm | 42 mm | 29 mm | 30 mm | 53 mm | 29 mm | 30 mm | 42 mm | 43 mm | 44 mm | 53 mm | 29 mm | 30 mm | 53 mm | 30 mm | 39 mm | 60 mm | 
2 | CCOc1nc(-c2ccc(OC)cc2)cc(-c2cccnc2)c1C#N [Compound 4, 6′-(4-methoxyphenyl)-2′-ethoxy-3,4′-bipyridine-3′-carbonitrile] | 23 mm | 27 mm | 38 mm | 25 mm | 28 mm | 46 mm | 19 mm | 25 mm | 32 mm | 17 mm | 21 mm | 31 mm | 25 mm | 28 mm | 41 mm | 26 mm | 36 mm | 49 mm | high antimicrobial activities
3 | COc1ccc(-c2cc(-c3cccnc3)c(C#N)c(OC)n2)cc1 [Compound 5, 6′-(4-methoxyphenyl)-2′-methoxy-3,4′-bipyridine-3′-carbonitrile] | 24 mm | 26 mm | 39 mm | 27 mm | 28 mm | 49 mm | 23 mm | 25 mm | 37 mm | 19 mm | 27 mm | 32 mm | 23 mm | 31 mm | 39 mm | 27 mm | 37 mm | 50 mm | high antimicrobial activities
